Data as given in patent US11655235B2, “Pyrrolidine and piperidine compounds” (YUHAN CORPORATION, priority 2019, dated 2023).
Like-named read-outs stand apart in the source and are kept apart here.

Assays:
Assay type in all cases: biochemical
recombinant human PREP = biological target: T1, recombinant human PREP (Homo sapiens, UniProt P48147); experiment: PREP inhibition, fluorogenic substrate Z-Gly-Pro-AMC; details: Inhibitory Activity (IC50, nM) PREP
T1 construct: purchased R&D System
T1 sequence (P48147 1-710): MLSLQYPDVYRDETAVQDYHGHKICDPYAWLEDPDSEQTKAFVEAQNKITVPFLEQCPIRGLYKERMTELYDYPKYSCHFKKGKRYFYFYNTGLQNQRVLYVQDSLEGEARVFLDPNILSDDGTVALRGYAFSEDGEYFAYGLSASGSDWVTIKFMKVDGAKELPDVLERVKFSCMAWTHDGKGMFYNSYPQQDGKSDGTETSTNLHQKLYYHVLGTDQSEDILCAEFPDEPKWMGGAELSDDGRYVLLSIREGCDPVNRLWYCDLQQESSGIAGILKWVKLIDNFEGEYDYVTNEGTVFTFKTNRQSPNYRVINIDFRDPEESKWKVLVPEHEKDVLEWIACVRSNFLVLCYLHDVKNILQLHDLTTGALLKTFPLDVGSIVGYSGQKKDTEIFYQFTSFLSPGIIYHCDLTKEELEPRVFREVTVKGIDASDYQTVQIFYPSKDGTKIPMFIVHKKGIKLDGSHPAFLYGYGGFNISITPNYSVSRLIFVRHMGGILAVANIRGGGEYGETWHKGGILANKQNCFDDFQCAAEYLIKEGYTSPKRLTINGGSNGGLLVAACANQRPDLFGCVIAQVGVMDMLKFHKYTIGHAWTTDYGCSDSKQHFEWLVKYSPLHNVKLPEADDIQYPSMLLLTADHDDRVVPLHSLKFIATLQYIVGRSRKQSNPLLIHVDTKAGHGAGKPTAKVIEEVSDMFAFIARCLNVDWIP
Method in brief: (§1)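 Enzyme per reaction: 50 ng DPP9, 20 ng DPP8, 10 ng each DPP7 and PREP. Compounds were serially diluted (8 points, up to 0.5% DMSO) and incubated at 25 °C.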

Recombinant human FAP = biological target: T2, Recombinant human FAP (Homo sapiens, UniProt Q12884); experiment: FAP inhibition, fluorogenic substrate Z-Gly-Pro-AMC
T2 construct: purchased R&D systems
T2 sequence (Q12884 1-760): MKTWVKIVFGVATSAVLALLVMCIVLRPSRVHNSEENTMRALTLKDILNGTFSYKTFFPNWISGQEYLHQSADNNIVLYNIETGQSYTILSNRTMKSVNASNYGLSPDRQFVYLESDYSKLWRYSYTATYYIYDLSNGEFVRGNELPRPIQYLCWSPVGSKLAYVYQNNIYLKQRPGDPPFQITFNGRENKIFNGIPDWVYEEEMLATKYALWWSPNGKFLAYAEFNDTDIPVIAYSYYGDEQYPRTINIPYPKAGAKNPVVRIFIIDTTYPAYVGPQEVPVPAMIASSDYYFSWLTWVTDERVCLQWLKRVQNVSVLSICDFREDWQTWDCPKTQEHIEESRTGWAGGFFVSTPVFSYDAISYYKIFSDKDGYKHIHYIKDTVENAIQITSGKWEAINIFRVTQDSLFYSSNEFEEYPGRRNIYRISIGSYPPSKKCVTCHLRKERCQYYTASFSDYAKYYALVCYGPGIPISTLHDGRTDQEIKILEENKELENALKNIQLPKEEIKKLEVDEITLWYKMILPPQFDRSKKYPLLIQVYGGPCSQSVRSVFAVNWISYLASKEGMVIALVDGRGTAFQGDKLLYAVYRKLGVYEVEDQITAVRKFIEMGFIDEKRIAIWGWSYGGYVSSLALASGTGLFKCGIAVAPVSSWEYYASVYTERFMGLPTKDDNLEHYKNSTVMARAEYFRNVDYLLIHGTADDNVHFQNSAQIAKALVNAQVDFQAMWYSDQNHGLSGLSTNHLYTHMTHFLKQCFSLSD
Method in brief: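 Recombinant human FAP, 10 ng per reaction, in 50 mM Tris pH 7.5 with 1 M NaCl and 1 mg/ml BSA at 25° C; substrate Z-Gly-Pro-AMC, ≤0.1% DMSO. AMC fluorescence read at ex 380/em 460 nm; % signal-rate decrease vs no-inhibitor control, 8-point curves fitted to a four-parameter logistic for IC50.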

recombinant human DPP8 = biological target: T3, recombinant human DPP8 (Homo sapiens, UniProt Q6V1X1); experiment: DPP8 inhibition, fluorogenic substrate Z-Ala-Pro-AMC
T3 construct: purchased PBS Bioscience
Method in brief: as §1

DPP4 = DPP4 (Homo sapiens, UniProt P27487); experiment: DPP4 inhibition, fluorogenic substrate H-Gly-Pro-AMC; design: purchased R&D Systems
recombinant human DPP7 = biological target: T4, recombinant human DPP7 (Homo sapiens, UniProt Q9UHL4); experiment: DPP7 inhibition, fluorogenic substrate Lys-Pro-AMC
T4 construct: purchased R&D Systems
Method in brief: as §1

recombinant human DPP9 = biological target: T5, recombinant human DPP9 (Homo sapiens, UniProt Q86TI2); experiment: DPP9 inhibition, fluorogenic substrate H-Gly-Pro-AMC
T5 construct: purchased R&D Systems
Method in brief: as §1

[1] = 25° C., Z-Gly-Pro-AMC substrate
[2] = 25° C., Z-Ala-Pro-AMC substrate
[3] = 25° C., H-Gly-Pro-AMC substrate
[4] = recombinant human FAP, substrate Z-Gly-Pro-AMC

T3 sequence (Q6V1X1 whole entry): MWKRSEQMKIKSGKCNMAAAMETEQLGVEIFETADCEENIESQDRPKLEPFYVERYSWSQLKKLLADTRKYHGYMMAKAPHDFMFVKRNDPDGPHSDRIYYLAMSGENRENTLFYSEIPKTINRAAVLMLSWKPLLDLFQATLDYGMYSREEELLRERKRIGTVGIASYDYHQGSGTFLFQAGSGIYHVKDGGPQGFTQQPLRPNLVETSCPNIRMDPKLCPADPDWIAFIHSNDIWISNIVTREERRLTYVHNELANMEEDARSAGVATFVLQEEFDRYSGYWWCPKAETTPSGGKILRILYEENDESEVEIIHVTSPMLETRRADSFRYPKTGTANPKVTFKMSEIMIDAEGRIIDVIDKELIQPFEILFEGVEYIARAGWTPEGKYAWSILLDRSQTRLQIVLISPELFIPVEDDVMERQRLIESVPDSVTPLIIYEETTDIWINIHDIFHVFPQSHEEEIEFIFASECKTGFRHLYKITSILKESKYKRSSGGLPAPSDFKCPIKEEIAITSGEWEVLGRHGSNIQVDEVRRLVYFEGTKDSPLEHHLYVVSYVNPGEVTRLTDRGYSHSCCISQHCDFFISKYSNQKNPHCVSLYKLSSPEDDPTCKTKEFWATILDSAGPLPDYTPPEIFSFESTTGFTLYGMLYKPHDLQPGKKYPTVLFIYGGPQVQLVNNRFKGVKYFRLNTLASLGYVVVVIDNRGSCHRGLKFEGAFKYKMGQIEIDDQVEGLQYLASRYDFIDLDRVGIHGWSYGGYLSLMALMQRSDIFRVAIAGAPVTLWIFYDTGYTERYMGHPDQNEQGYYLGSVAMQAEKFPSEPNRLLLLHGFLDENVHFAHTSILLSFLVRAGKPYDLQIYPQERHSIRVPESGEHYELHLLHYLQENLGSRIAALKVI
T5 sequence (Q86TI2 whole entry): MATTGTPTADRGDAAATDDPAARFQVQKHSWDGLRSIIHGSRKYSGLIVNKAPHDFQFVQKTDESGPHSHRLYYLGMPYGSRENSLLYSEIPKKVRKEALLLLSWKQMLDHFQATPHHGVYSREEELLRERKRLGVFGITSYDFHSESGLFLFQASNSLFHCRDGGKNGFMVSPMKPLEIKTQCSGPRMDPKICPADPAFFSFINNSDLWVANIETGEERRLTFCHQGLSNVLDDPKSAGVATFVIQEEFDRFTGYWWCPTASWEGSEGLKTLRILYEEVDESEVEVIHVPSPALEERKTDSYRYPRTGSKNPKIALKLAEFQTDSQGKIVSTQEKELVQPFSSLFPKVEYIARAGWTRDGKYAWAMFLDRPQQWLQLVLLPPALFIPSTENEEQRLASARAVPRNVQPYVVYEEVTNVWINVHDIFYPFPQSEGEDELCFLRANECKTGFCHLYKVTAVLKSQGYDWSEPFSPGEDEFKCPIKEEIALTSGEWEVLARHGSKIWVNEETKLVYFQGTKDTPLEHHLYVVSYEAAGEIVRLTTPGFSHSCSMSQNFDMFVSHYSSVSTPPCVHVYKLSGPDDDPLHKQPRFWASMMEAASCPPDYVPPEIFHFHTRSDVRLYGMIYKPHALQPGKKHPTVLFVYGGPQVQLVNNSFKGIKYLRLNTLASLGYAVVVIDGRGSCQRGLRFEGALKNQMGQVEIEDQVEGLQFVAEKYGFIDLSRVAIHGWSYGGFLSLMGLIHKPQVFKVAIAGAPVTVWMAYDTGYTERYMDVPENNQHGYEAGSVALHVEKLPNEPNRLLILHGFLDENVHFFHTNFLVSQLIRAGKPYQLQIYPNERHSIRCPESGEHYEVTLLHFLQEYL
DPP4, sequence (P27487 whole entry): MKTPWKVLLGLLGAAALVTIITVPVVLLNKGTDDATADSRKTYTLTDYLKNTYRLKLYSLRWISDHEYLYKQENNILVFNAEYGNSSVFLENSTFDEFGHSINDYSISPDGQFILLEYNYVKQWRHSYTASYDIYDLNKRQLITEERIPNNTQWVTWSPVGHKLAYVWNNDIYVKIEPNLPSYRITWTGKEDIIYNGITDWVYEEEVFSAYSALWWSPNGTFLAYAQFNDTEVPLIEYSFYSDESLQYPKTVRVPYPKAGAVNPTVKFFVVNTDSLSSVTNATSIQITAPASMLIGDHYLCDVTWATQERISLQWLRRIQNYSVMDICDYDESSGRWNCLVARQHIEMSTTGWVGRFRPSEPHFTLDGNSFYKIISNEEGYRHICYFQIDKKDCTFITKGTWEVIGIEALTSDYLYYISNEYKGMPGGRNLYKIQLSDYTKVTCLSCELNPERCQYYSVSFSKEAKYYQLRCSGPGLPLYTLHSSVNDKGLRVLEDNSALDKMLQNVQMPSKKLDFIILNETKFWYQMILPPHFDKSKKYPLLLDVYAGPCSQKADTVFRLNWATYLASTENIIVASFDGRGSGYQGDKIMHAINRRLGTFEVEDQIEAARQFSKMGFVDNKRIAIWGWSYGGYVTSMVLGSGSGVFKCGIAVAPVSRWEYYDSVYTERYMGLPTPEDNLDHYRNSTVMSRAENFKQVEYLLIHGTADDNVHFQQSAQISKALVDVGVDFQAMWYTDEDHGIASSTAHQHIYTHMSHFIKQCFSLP

SMILES	IC50 (recombinant human PREP; [1])	IC50 (Recombinant human FAP; [1])	IC50 (recombinant human DPP8; [2])	IC50 (DPP4; [3])	IC50 (recombinant human DPP7)	IC50 (recombinant human DPP9; [3])	IC50 (recombinant human PREP; recombinant human PREP)	IC50 (Recombinant human FAP; [4])	IC50 (recombinant human DPP8; recombinant human DPP8)	IC50 (DPP4; recombinant human DPP4)	IC50 (recombinant human DPP7; recombinant human DPP7)	IC50 (recombinant human DPP9; recombinant human DPP9)	inhibition at 1 µM (DPP4; read-out: hDPP4 inhibition % at 1 μM)
COc1ccc(NC2CCN(CC(=O)N3C[C@@H](F)C[C@H]3C#N)CC2)c2cccnc12 [Example 135, (2S,4S)-4-fluoro-1-(2-(4-((8-methoxyquinolin-5-yl)amino)piperidin-1-yl)acetyl)pyrrolidine-2-carbonitrile]	4990 nM	0.00347 µM	5.78 µM	4.14 µM	1.02 µM	3.44 µM	–	–	–	–	–	–	–
COc1cc(N[C@H]2CCN(CC(=O)N3C[C@@H](F)C[C@H]3C#N)C2)c2cccnc2c1 [Example 257, (2S,4S)-4-fluoro-1-[2-[(3S)-3-[(7-methoxy-5-quinolyl)amino]pyrrolidin-1-yl]acetyl]pyrrolidine-2-carbonitrile]	–	–	–	–	–	–	1530 nM	0.0009 µM	4.54 µM	0.694 µM	0.289 µM	6.56 µM	–
COc1ccc2c(C(=O)N[C@H]3CCN(CC(=O)N4CCC[C@H]4C#N)C3)coc2c1 [Example 54, N—((S)-1-(2-((S)-2-cyanopyrrolidin-1-yl)-2-oxoethyl)pyrrolidin-3-yl)-6-methoxybenzofuran-3-carboxamide]	5500 nM	0.00848 µM	23.2 µM	–	2.39 µM	> 100 µM	–	–	–	–	–	–	2%
N#C[C@@H]1C[C@H](F)CN1C(=O)CN1CCC(Nc2ccc(Cl)c3cnccc23)CC1 [Example 353, (2S,4S)-1-[2-[4-[(8-chloro-5-isoquinolyl)amino]-1-piperidyl]acetyl]-4-fluoro-pyrrolidine-2-carbonitrile]	–	–	–	–	–	–	3570 nM	0.0045 µM	> 10 µM	5.89 µM	1.06 µM	2.88 µM	–
COc1cc2nc(Cl)nc(NC3CCN(CC(=O)N4CCC[C@H]4C#N)CC3)c2cc1OC [Example 358, (2S)-1-[2-[4-[(2-chloro-6,7-dimethoxy-quinazolin-4-yl)amino]-1-piperidyl]acetyl]pyrrolidine-2-carbonitrile]	–	–	–	–	–	–	11800 nM	0.0037 µM	30 µM	> 10 µM	1.44 µM	64.6 µM	–
N#C[C@@H]1CC(F)(F)CN1C(=O)CN1CC[C@H](Oc2ccnc3cc(Cl)ccc23)C1 [Example 107, (S)-1-(2-((S)-3-((7-chloroquinolin-4-yl)oxy)pyrrolidin-1-yl)acetyl)-4,4-difluoropyrrolidine-2-carbonitrile]	6500 nM	0.00367 µM	9.89 µM	> 1 µM	0.0187 µM	13.5 µM	–	–	–	–	–	–	–
N#C[C@@H]1C[C@H](F)CN1C(=O)CN1CCC(Oc2ccnc3ccc(F)cc23)CC1 [Example 126, (2S,4S)-4-fluoro-1-(2-(4-((6-fluoroquinolin-4-yl)oxy)piperidin-1-yl)acetyl)pyrrolidine-2-carbonitrile]	1130 nM	0.00084 µM	16.4 µM	7.96 µM	10.4 µM	11 µM	–	–	–	–	–	–	–
COc1ccc2nccc(O[C@H]3CCN(CC(=O)N4CCC[C@H]4C#N)C3)c2c1 [Example 84, (S)-1-(2-((S)-3-((6-methoxyquinolin-4-yl)oxy)pyrrolidin-1-yl)acetyl)pyrrolidine-2-carbonitrile]	5400 nM	0.001 µM	> 100 µM	> 1 µM	9.46 µM	> 100 µM	–	–	–	–	–	–	–
